From US6699676B1, “Uses of ouabain and ouabain-like molecules in apoptosis related pathologies” (Corporation du Centre de Recherche du Centre, Hospitalier …, priority 1999, dated 2004)

Experiments:
[1] = tested on: caspase-3; experiment: Caspase-3 activity in treated Jurkat cells; type: cell-based, human; details: for increase of caspase-3 activity: 3 hours, Fas ligand 100 ng/ml, staurosporine 0.25 μM, mannitol 350 mM
Procedure: (§1) FIG. 5. Effect of ouabain on caspase-3 activity in VSMC-E1A (A) and Jurkat cells (B). VSMC-E1A and Jurkat cells were pretreated with 1 mM ouabain for 1 and 2 hours, respectively, and the additions indicated below the bars were delivered in media with 10% calf serum and with the baseline (137/5) or inverse (14/128) [Na^+]o/[K^+]o ratio for 6 (VSMC-E1A) or 3 hours (Jurkat cells). In experiments with VSMC-E1A, calf serum (CS) was omitted where indicated (−). Abbreviations: staur.—staurosporine (0.25 μM), ok.ac.—okadaic acid (1 μM), mann.—mannitol (350 mM); Fas-L—Fas ligand (100 ng/ml). Mean values±S.E. obtained in experiments performed in quadruplicate (A) or triplicate (B) are given. ★p<0.001 compared to ouabain-untreated cells.
(§2) Caspase activity. VSMC-E1A seeded in 20 cm^2 flasks and treated as indicated in FIG. 5 were scratched, transferred to centrifuge tubes, washed twice with PBS and lysed in 0.5 ml of buffer A contaming 50 mM tris-HCl (pH 7.4), 5 mM MgCl2, 1 mM EGTA and 0.1% CHAPS. Then, 50-100 μl of cell lysate was mixed with 600 μl of buffer A containing 1 mM dithiothreitol, 40 μM YVAD-AMC or DEVD-AMC with or without 1 μM of caspase-1 and capspase-3 inhibitors (Ac-YVAD-CHO and Ac-DEVD-CHO, respectively), incubated for 2 hours at 37° C. and diluted 15-fold with 80 mM glycine-NaOH buffer (pH 10). Fluorescence of the samples was measured at ex=365 run and em=465 run and calibrated with AMC in the range of 10 to 100 nM. To measure caspase activity in control and ouabain-treated Jurkat cells, 5 ml of suspension containing ˜2×10^7 cells was transferred onto ice and sedimented. The pellet of cells was washed and treated with 0.3 ml of medium A in the same way as VSMC. Protein content was estimated by Bradford methods.

[2] = tested on: caspase-3; experiment: Caspase-3 activity in treated VSMC-E1A; type: cell-based, rat
Procedure: as §1, §2

[3] = tested on: Jurkat cells; experiment: Chromatin cleavage assay in Jurkat cells; type: cell-based, human; details: for content of chromatin fragments: 3 hours, 0.25 μM staurosporine or 350 mM mannitol (from 2.6±1.2); for Chromatin fragments (%): 1 mM, 2 hours + 7 hours
Procedure: FIG. 4. Effect of ouabain on chromatin cleavage in Jurkat cells. (A) Kinetics of accumulation of chromatin fragments in control (curves 1, 3) and ouabain-treated (curves 2, 4) cells in the absence (curves 1, 2) or presence (curves 3, 4) of 100 ng/ml of anti-human Fas (mouse monoclonal IgM, Upstate Biotechnology, Lake Placid, N.Y.); (B) Content of chromatin fragments in Jurkat cells subjected to 3 hours of incubation with or without 1 mM ouabain, 0.25 μM staurosporine and 350 mM mannitol. In both experiments, ouabain was added 2 hours before triggering of apoptosis. Mean values±S.E. obtained in experiments performed in triplicate are given.
To estimate chromatin cleavage, cells were incubated for 2 hours in the presence of 10% calf serum in the control solution (DMEM, [Na^+]=137 mM; [K^+]=5 mM—line 1) or under equimolar substitution of NaCl with KCl ([Na^+]=14 mM; [K^+]=128 mM—line 2) with or without 1 mM ouabain and then for an additional 7 hours at the same media with or without 100 ng/ml Fas ligand (Fas-L). Intracellular Na^+ and K^+ content was measured as steady-state distribution of isotopes after 24 hours preincubation of cells in control Na^+-enriched solution containing 0.5 μCi/ml ^86Rb or 2 μCi/ml ^22Na, and an additional 6 hours incubation in Na^+—(line 1) or K^+—(line 2) enriched medium containing 10% calf serum, isotopes with the same specific activity with or without 1 mM ouabain. For more details see Experimental Procedures. Mean values±S.E. obtained in experiments performed in triplicate are given. ★, #p<0.01 and 0.001 compared to ouabain-untreated cells.
Cells. VSMC were obtained by explant methods from aortas of 10- to 13-week-old male rats as described previously (17), cultured in DMEM with 10% calf serum, 100 U/ml penicillin, 100 µg/ml streptomycin and used between 10 to 16 passages. Cells transfected with c-myc (VSMC-MYC) and E1A-adenovirus (VSMC-E1A) were obtained in accordance with a previously-described protocol (18,19) and were cultured in the same medium with the addition of 500 µg/ml genticin. Jurkat cells were obtained from the American Type Culture Collection and cultured in RPMI 1640 medium supplied with 10% calf serum, antibiotics, sodium pyruvate, glutamate and β-mercaptoethanol.
Chromatin cleavage assay. Chromatin cleavage in VSMC was estimated by a technique described previously in detail (10). Briefly, VSMC grown in 24-well dishes were labeled for 24 hours in serum-supplied DMEM with [^3H]-thymidine (1 μCi/ml), washed with 2×2 ml of DMEM and incubated in serum-supplied DMEM. In 48 hr, the cells were pretreated with ouabain or K^+-depleted medium as indicated in FIG. 2 and Table 3, washed twice with serum-containing medium and incubated with 0.5 ml of medium with or without ouabain and containing different inducers of apoptosis. To measure the content of chromatin fragments, the cells were transferred on ice and 1 ml of ice-cold lysed buffer (10 mM EDTA, 10 mM tris-HCl, 0.5% triton X100 (pH 8.0)) was added. After 15 min, the cell lysate was transferred to Ependorf tubes, sedimented (12,000 rpm, 10 mm), and 1 ml of supernatant was transferred for the measurement of radioactivity (A1t). The remaining radioactivity from pellets and wells was extracted with 0.5 ml of 1% SDS/4 mM EDTA mixture, combined and counted (A2). Chromatin cleavage was quantified as the content of chromatin fragments normalized by total content of [^3H]-labeled DNA in accordance with the equation [1.5×(A1t−A1o)/(A2+A1t−1.5A1o)]×100% where A1o is the value of A1t before induction of apoptosis. To measure chromatin fragmentation in [^3H]-thymidine-labeled Jurkat cells, they were resuspended at a density of 10^6 cells/ml in medium containing 10% calf serum and the additions indicated in FIG. 4 and Table 4. At the time intervals shown in FIG. 4, 100 μl of cell suspension was mixed with 100 μl of PBS contairung 0.5% triton X100, and the content of chromatin fragments was measured as described previously in detail (20).

CN[C@@H]1C[C@H]2O[C@@](C)([C@@H]1OC)n1c3ccccc3c3c4c(c5c6ccccc6n2c5c31)C(=O)NC4 [staurosporine]
increase of caspase-3 activity [1]: ~20 fold
increase of caspase-3 activity ([2]; 6 hours, staurosporine 0.25 μM, okadaic acid 1 μM): 8 fold
content of chromatin fragments ([3]; Jurkat cells): 19.7±4.3%

C[C@@H]1O[C@@H](O[C@H]2C[C@@H](O)[C@]3(CO)[C@H]4[C@H](O)C[C@]5(C)[C@@H](C6=CC(=O)OC6)CC[C@]5(O)[C@@H]4CC[C@]3(O)C2)[C@H](O)[C@H](O)[C@H]1O [Ouabain, 1β,3β,5,11α,14,19-hexahydroxycard 20 [22]-enolide 3-[6-deoxy-α-L-mannopyrano-sidel]]
increment of caspase-3 activity triggered by Fas ligand, staurosporine and hyperosmotic shrinkage ([1]; ouabain): Neither ouabain nor equimolar substitution of Na^+ by K^+ in the incubation medium affected the increment of caspase-3 activity
baseline caspase-3 activity ([1]; pretreatment 2 hours with 1 mM ouabain (from 296±38)): 497±67 pmol (mg prot)^−1 hr^−1
increment of caspase-3 activity under induction of apoptosis ([2]; 1 mM ouabain, control medium): abolished the increment of caspase-3 activity
caspase-3 activity in apoptosis triggered by okadaic acid ([2]; ouabain, K+-enriched, Na+-depleted medium ([Na+]o/[K+]o=14/128)): did not observe any effect
baseline activity of caspase-3 ([2]; pretreatment 1 hour with 1 mM ouabain (from 560±41)): 101±39 pmol (mg prot)^−1 hr^−1
chromatin cleavage in the absence of triggers of apoptosis ([3]; Jurkat cells, 2 hours ouabain pretreatment, subsequent 3 hours): did not significantly modify chromatin cleavage
increment of chromatin cleavage triggered by Fas ligand, staurosporine or mannitol ([3]; Jurkat cells, ouabain, 3 hours treatment with trigger): did not observe any effect
Chromatin fragments (%) ([3]; ouabain-treated Jurkat cells, +Fas-L 100 ng/ml, medium [Na+]o=14, [K+]o=128 mM): 22.7%
Chromatin fragments (%) ([3]; ouabain-treated Jurkat cells, +Fas-L 100 ng/ml, medium [Na+]o=137, [K+]o=5 mM): 42.7%
Chromatin fragments (%) ([3]; ouabain-treated Jurkat cells, no Fas-L, medium [Na+]o=14, [K+]o=128 mM): 5.7%
Chromatin fragments (%) ([3]; ouabain-treated Jurkat cells, no Fas-L, medium [Na+]o=14, [K+]o=128 mM, listed as ouabain): 5.7±2.0%
Chromatin fragments (%) ([3]; ouabain-treated Jurkat cells, no Fas-L, medium [Na+]o=137, [K+]o=5 mM): 16.0%
Chromatin fragments (%) ([3]; ouabain-treated Jurkat cells, no Fas-L, medium [Na+]o=137, [K+]o=5 mM, listed as ouabain): 16.0±4.6%
increment of the content of chromatin fragments triggered by Fas ligand ([3]; ouabain-treated Jurkat cells, 7-hr incubation): 26.2±4.7%

OC[C@@H](O)[C@@H](O)[C@H](O)[C@H](O)CO [mannitol]
increase of caspase-3 activity [1]: ~10 fold
caspase-3 activity under mannitol-induced cell shrinkage ([2]; 350 mM mannitol, 6 hours): insensitive to mannitol-induced cell shrinkage
content of chromatin fragments ([3]; Jurkat cells): 15.6±2.9%
